# Experimental data taken from patent US20250026759A1 (Merck Sharp & Dohme LLC, priority 2023, published 2025).
# Test system: PBMCs infected with VSV-G pseudotyped HIV virus (VSV-G/pNLG1-P2A-ΔEnv)
# Test: cells
# Type: cell-based, human
# Settings: Homo sapiens, PBMC, read-out: TACK EC50
row,SMILES,EC50
1,"O=C1Nc2cc(Cn3nccc3CO)c(F)cc2[C@@](C#CC2CC2)(C(F)(F)F)N1 (single isomer, unassigned) [Example 5]",109 nM
2,"O=C1Nc2cc(Cn3ccc(CO)n3)c(F)cc2[C@@](C#CC2CC2)(C(F)(F)F)N1 (single isomer, unassigned) [Example 6]",17.1 nM
3,"O=C1Nc2cc(Cn3c(=O)[nH]c4cccnc43)c(F)cc2[C@@](C#CC2CC2)(C(F)(F)F)N1 (single isomer, unassigned) [Example 7]",12 nM
4,"O=C1Nc2cc(Cn3c(=O)[nH]c4ncccc43)c(F)cc2[C@@](C#CC2CC2)(C(F)(F)F)N1 (single isomer, unassigned) [Example 8]",38.7 nM
5,"O=C1Nc2cc(Cn3ncc4c3CCOC4)c(F)cc2[C@@](C#CC2CC2)(C(F)(F)F)N1 (single isomer, unassigned) [Example 22]",60.5 nM
6,"O=C1Nc2cc(Cn3cc4c(n3)CCOC4)c(F)cc2[C@@](C#CC2CC2)(C(F)(F)F)N1 (single isomer, unassigned) [Example 23]",21.2 nM
7,"O=C1Nc2cc(Cn3ncc4ccncc43)c(F)cc2[C@@](C#CC2CC2)(C(F)(F)F)N1 (single isomer, unassigned) [Example 25]",59.9 nM
8,"O=C1Nc2cc(Cn3cc4ccncc4n3)c(F)cc2[C@@](C#CC2CC2)(C(F)(F)F)N1 (single isomer, unassigned) [Example 26]",13.6 nM
9,"CC(F)(F)[C@@]1(C#CC2CC2)NC(=O)Nc2cc(Cn3cncc3CO)c(F)cc21 (single isomer, unassigned) [Example 50]",68.1 nM
10,"CC(F)(F)[C@@]1(C#CC2CC2)NC(=O)Nc2cc(Cn3cnc(CO)c3)c(F)cc21 (single isomer, unassigned) [Example 51]",107 nM
11,"CC(O)c1ccn(Cc2cc3c(cc2F)[C@@](C#CC2CC2)(C(C)(F)F)NC(=O)N3)n1 (single isomer, unassigned) [Example 72, (S)-4-(cyclopropylethynyl)-4-(1,1-difluoroethyl)-6-fluoro-7-((3-((S or R)-1-hydroxyethyl)-1H-pyrazol-1-yl)methyl)-3,4-dihydroquinazolin-2(1H)-one]",46.2 nM
12,"CC(F)(F)[C@@]1(C#CC2CC2)NC(=O)Nc2cc(Cn3ncc(F)c3C(N)=O)c(F)cc21 (single isomer, unassigned) [Example 103]",30.2 nM
13,"CC(F)(F)[C@@]1(C#CC2CC2)NC(=O)Nc2cc(Cn3cc(F)c(C(N)=O)n3)c(F)cc21 (single isomer, unassigned) [Example 104]",14.6 nM
14,"CC(F)(F)[C@@]1(C#CC2CC2)NC(=O)Nc2cc(Cn3ncnc3N)c(F)cc21 (single isomer, unassigned) [Example 105]",10.9 nM
15,"Nc1ncn(Cc2cc3c(cc2F)[C@@](C#CC2CC2)(C(F)(F)F)NC(=O)N3)n1 (single isomer, unassigned) [Example 107]",17.4 nM

# Same assay, conditions: read-out: TACK EC50
row,SMILES,EC50
1,"COC(C)c1ccn(Cc2cc3c(cc2F)[C@@](C#CC2CC2)(C(C)(F)F)NC(=O)N3)n1 (single isomer, unassigned) [Example 58, (S)-4-(cyclopropylethynyl)-4-(1,1-difluoroethyl)-6-fluoro-7-((3-((R or S)-1-methoxyethyl)-1H-pyrazol-1-yl)methyl)-3,4-dihydroquinazolin-2(1H)-one]",25 nM
2,"COC(C)c1ccn(Cc2cc3c(cc2F)[C@@](C#CC2CC2)(C(C)(F)F)NC(=O)N3)n1 (single isomer, unassigned) [Example 59, (S)-4-(cyclopropylethynyl)-4-(1,1-difluoroethyl)-6-fluoro-7-((3-((S or R)-1-methoxyethyl)-1H-pyrazol-1-yl)methyl)-3,4-dihydroquinazolin-2(1H)-one]",55.6 nM
3,"CC(O)c1ccn(Cc2cc3c(cc2F)[C@@](C#CC2CC2)(C(C)(F)F)NC(=O)N3)n1 (single isomer, unassigned) [Example 73, (S)-4-(cyclopropylethynyl)-4-(1,1-difluoroethyl)-6-fluoro-7-((3-((R or S)-1-hydroxyethyl)-1H-pyrazol-1-yl)methyl)-3,4-dihydroquinazolin-2(1H)-one]",24.5 nM
